# According to US9670201B2, “Methyl- and trifluoromethyl-substituted pyrrolopyridine modulators of RORC2 and methods of use thereof” (Pfizer Inc., priority 2014, dated 2017):
# Target: RORC2 ligand binding domain (6-His-RORC2 LBD) (Homo sapiens (Human), UniProt P51449)
# Assay: Co-activator recruitment by TR-FRET
# Assay type: biochemical
# Details: 6-His-RORC2 LBD / SRC1-2 coactivator peptide, Table 1
# RORC2 ligand binding domain (6-His-RORC2 LBD), sequence (P51449 269-508): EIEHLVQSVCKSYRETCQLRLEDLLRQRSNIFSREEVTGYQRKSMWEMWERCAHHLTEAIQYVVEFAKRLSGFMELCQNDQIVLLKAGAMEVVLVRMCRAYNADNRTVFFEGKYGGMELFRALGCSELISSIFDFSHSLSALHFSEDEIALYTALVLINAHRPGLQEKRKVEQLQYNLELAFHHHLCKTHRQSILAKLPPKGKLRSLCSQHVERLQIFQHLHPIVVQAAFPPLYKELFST
row,SMILES,IC50
1,"C[C@@H](C(=O)N1CCC(c2cn(C)c3ncc(NC(=O)c4cc(O)cc(C#N)c4)c(C(F)(F)F)c23)CC1)C(C)(C)C [Example 54, (R)-3-cyano-5-hydroxy-N-(1-methyl-4-(trifluoromethyl)-3-(1-(2,3,3-trimethylbutanoyl)piperidin-4-yl)-1H-pyrrolo[2,3-b]pyridin-5-yl)benzamide]",4.7 nM
2,"Cn1cc(C2CCN(C(=O)C3CCCC3)CC2)c2c(C(F)(F)F)c(NC(=O)c3cc(O)cc(C#N)c3)cnc21 [Example 55, 3-cyano-N-(3-(1-(cyclopentanecarbonyl)piperidin-4-yl)-1-methyl-4-(trifluoromethyl)-1H-pyrrolo[2,3-b]pyridin-5-yl)-5-hydroxybenzamide]",10.6 nM
3,"Cc1c(NC(=O)c2cc(O)cc(C#N)c2)cnc2c1c(C1CCN(C(=O)[C@H](C)C(C)(C)C)CC1)cn2C [Example 56, (R)-3-cyano-N-(1,4-dimethyl-3-(1-(2,3,3-trimethylbutanoyl)piperidin-4-yl)-1H-pyrrolo[2,3-b]pyridin-5-yl)-5-hydroxybenzamide]",5.6 nM
4,"CC(C)C(=O)N1C[C@H]2CC[C@@H](C1)[C@@H]2c1cn(C)c2ncc(NC(=O)c3cccc(C#N)c3)c(C(F)(F)F)c12 [Example 77, 3-cyano-N-(3-((1R,5S,8r)-3-isobutyryl-3-azabicyclo[3.2.1]octan-8-yl)-1-methyl-4-(trifluoromethyl)-1H-pyrrolo[2,3-b]pyridin-5-yl)benzamide]",5.2 nM
5,"Cn1cc(C2[C@@H]3CC[C@H]2CN(C(=O)C2CCCC2)C3)c2c(C(F)(F)F)c(NC(=O)c3cccc(C#N)c3)cnc21 (stereo partly drawn) [Example 79, 3-cyano-N-{3-((1R,5S,8r)-3-(cyclopentanecarbonyl)-3-azabicyclo[3.2.1]octan-8-yl]-1-methyl-4-(trifluoromethyl)-1H-pyrrolo[2,3-b]pyridin-5-yl}benzamide]",39.1 nM
6,"CC(C)C(=O)N1CC[C@@H](c2cn(C)c3ncc(NC(=O)c4cccc(C#N)c4F)c(C(F)(F)F)c23)[C@@H](C)C1 [Example 82, 3-cyano-2-fluoro-N-(3-((3R,4R)-1-isobutyryl-3-methylpiperidin-4-yl)-1-methyl-4-(trifluoromethyl)-1H-pyrrolo[2,3-b]pyridin-5-yl)benzamide]",5.1 nM
7,"Cc1c(NC(=O)c2cccc(C#N)c2)cnc2c1c([C@@H]1CCN(C(=O)C(C)C3CC3)C[C@@H]1C)cn2C (stereo partly drawn) [Example 86, 3-cyano-N-(3-((3R,4R)-1-(2-cyclopropylpropanoyl)-3-methylpiperidin-4-yl)-1,4-dimethyl-1H-pyrrolo[2,3-b]pyridin-5-yl)benzamide]",16 nM
8,"Cc1c(NC(=O)c2cccc(C#N)c2)cnc2c1c([C@@H]1CCN(C(=O)C(C)C)[C@@H](C)C1)cn2C [Example 113, 3-cyano-N-(3-((2S,4R)-1-isobutyryl-2-methylpiperidin-4-yl)-1,4-dimethyl-1H-pyrrolo[2,3-b]pyridin-5-yl)benzamide]",20.2 nM

# More lines, now with the values ahead:
row,IC50,SMILES
1,11.8 nM,"Cc1ccc(C(=O)Nc2cnc3c(c([C@@H]4CCN(C(=O)C5CCCC5)C(C)(C)C4)cn3C)c2C)cc1C#N [Example 59, (R)-3-cyano-N-(3-(1-(cyclopentanecarbonyl)-2,2-dimethylpiperidin-4-yl)-1,4-dimethyl-1H-pyrrolo[2,3-b]pyridin-5-yl)-4-methylbenzamide]"
2,15.2 nM,"Cc1c(NC(=O)c2ccc(F)c(C#N)c2)cnc2c1c([C@@H]1CCN(C(=O)C3CCCC3)C(C)(C)C1)cn2C [Example 61, (R)-3-cyano-N-(3-(1-(cyclopentanecarbonyl)-2,2-dimethylpiperidin-4-yl)-1,4-dimethyl-1H-pyrrolo[2,3-b]pyridin-5-yl)-4-fluorobenzamide]"
3,9.7 nM,"COc1cc(Cl)cc(C(=O)Nc2cnc3c(c([C@@H]4CCN(C(=O)C(C)C)C(C)(C)C4)cn3C)c2C)c1 [Example 62, (R)-3-chloro-N-(3-(1-isobutyryl-2,2-dimethylpiperidin-4-yl)-1,4-dimethyl-1H-pyrrolo[2,3-b]pyridin-5-yl)-5-methoxybenzamide]"
4,12.9 nM,"COc1cc(Cl)cc(C(=O)Nc2cnc3c(c([C@@H]4CCN(C(=O)C5CCCC5)C(C)(C)C4)cn3C)c2C)c1 [Example 63, (R)-3-chloro-N-(3-(1-(cyclopentane-carbonyl)-2,2-dimethylpiperidin-4-yl)-1,4-dimethyl-1H-pyrrolo[2,3-b]pyridin-5-yl)-5-methoxybenzamide]"
5,41.8 nM,"Cc1c(NC(=O)c2cc(O)cc(C#N)c2)cnc2c1c([C@@H]1CCN(C(=O)C3CCCC3)C(C)(C)C1)cn2C [Example 64, (R)-3-cyano-N-(3-(1-(cyclopentanecarbonyl)-2,2-dimethylpiperidin-4-yl)-1,4-dimethyl-1H-pyrrolo[2,3-b]pyridin-5-yl)-5-hydroxybenzamide]"
6,5.7 nM,"Cn1cc([C@@H]2CCN(C(=O)C3CCCC3)C(C)(C)C2)c2c(C(F)(F)F)c(NC(=O)c3cccc(C#N)c3)cnc21 [Example 65, (R)-3-cyano-N-(3-(1-(cyclopentanecarbonyl)-2,2-dimethylpiperidin-4-yl)-1-methyl-4-(trifluoromethyl)-1H-pyrrolo[2,3-b]pyridin-5-yl)benzamide]"
7,22.6 nM,"Cc1c(NC(=O)c2cccc(C#N)c2)cnc2c1c([C@@H]1CCN(C(=O)C[C@@H](O)C(F)(F)F)C(C)(C)C1)cn2C [Example 73, 3-cyano-N-(3-((R)-2,2-dimethyl-1-((R)-4,4,4-trifluoro-3-hydroxybutanoyl)piperidin-4-yl)-1,4-dimethyl-1H-pyrrolo[2,3-b]pyridin-5-yl)benzamide]"
8,6.2 nM,"Cc1c(NC(=O)c2cccc(C#N)c2)cnc2c1c([C@@H]1CCN(C(=O)CC3CCCC3)C(C)(C)C1)cn2C [Example 74, (R)-3-cyano-N-(3-(1-(2-cyclopentylacetyl)-2,2-dimethylpiperidin-4-yl)-1,4-dimethyl-1H-pyrrolo[2,3-b]pyridin-5-yl)benzamide]"
9,7.3 nM,"Cc1c(NC(=O)c2cccc(C#N)c2)cnc2c1c([C@@H]1CCN(C(=O)CC3CCCCC3)C(C)(C)C1)cn2C [Example 75, (R)-3-cyano-N-(3-(1-(2-cyclohexylacetyl)-2,2-dimethylpiperidin-4-yl)-1,4-dimethyl-1H-pyrrolo[2,3-b]pyridin-5-yl)benzamide]"
10,7.5 nM,"Cc1c(NC(=O)c2cccc(C#N)c2)cnc2c1c([C@@H]1CCN(C(=O)CC3CCC3)C(C)(C)C1)cn2C [Example 76, (R)-3-cyano-N-(3-(1-(2-cyclobutylacetyl)-2,2-dimethylpiperidin-4-yl)-1,4-dimethyl-1H-pyrrolo[2,3-b]pyridin-5-yl)benzamide]"
11,21.2 nM,"COc1cc(C#N)cc(C(=O)Nc2cnc3c(c([C@@H]4CCN(C(=O)C5CCCC5)[C@@H](C)C4)cn3C)c2C)c1 [Example 90, 3-cyano-N-(3-((2S,4R)-1-(cyclopentanecarbonyl)-2-methylpiperidin-4-yl)-1,4-dimethyl-1H-pyrrolo[2,3-b]pyridin-5-yl)-5-methoxybenzamide]"
12,21.1 nM,"COc1ccc(C(=O)Nc2cnc3c(c(C4[C@@H]5CC[C@H]4CN(C(=O)C4CCCC4)C5)cn3C)c2C)cc1C#N (stereo partly drawn) [Example 99, 3-cyano-N-(3-((1R,5S,8r)-3-(cyclopentanecarbonyl)-3-azabicyclo[3.2.1]octan-8-yl)-1,4-dimethyl-1H-pyrrolo[2,3-b]pyridin-5-yl)-4-methoxybenzamide]"
